From patent publication US20040191168A1, “Tumor cell killing by cell cycle checkpoint abrogation combined with Inhibition of the classical mitogen activated protein (map) kinase pathway” (priority 2000, published 2004)

Tests used:
MDA-MB-231 cells = experiment: TUNEL apoptosis in MDA-MB-231 cells; type: cell-based, human; conditions: MDA-MB-231, 24 h; with 150 nM UCN-01; PD184352 10 μM, U0126 5 μM; FIG. 8A
Excerpt: Terminal Uridyl-Nucleotide End Labeling (TUNEL) for apoptosis.

colon tumor cells = conditions: mice (Sebolt-Leopold et al., 1999); cited from earlier work
DU145 cells = experiment: Colony forming (clonogenic) assay in DU145 cells; type: cell-based, human; conditions: 25 μM PD98059, 150 nM UCN-01, replated 48 h, ± SEM
Description: (§1) Colony forming (clonogenic) assay. Cells were plated 36 h prior to experimentation. Cells were pre-treated with MEK1/2 inhibitor as indicated, 2 h prior to exposure. Cells were irradiated (2 Gy). After a further 48 h, cells were isolated by tryptic digestion and single cell suspensions plated on Linbro® plates at densities of 500 cells/well and 1000 cells/well. Colony formation was defined as a colony of 50 cells or greater, 10 days after plating.

MCF7 cells = experiment: Colony forming (clonogenic) assay in MCF7 cells; type: cell-based, human; conditions: 25 μM PD98059, 150 nM UCN-01, replated 48 h, ± SEM
Description: as §1

| Compound | apoptosis in combination with UCN-01 (MDA-MB-231 cells) | in vivo growth of colon tumor cells (colon tumor cells) | clonogenic survival (colonies, normalized to control unirradiated cells = 100%) (DU145 cells; DU145, 2 Gy) [%] | clonogenic survival (colonies, normalized to control unirradiated cells = 100%) (DU145 cells; DU145, mock irradiated) [%] | clonogenic survival (colonies, normalized to control unirradiated cells = 100%) (MCF7 cells; MCF7, 2 Gy) [%] | clonogenic survival (colonies, normalized to control unirradiated cells = 100%) (MCF7 cells; MCF7, mock irradiated) [%] |
| --- | --- | --- | --- | --- | --- | --- |
| O=C(NOCC1CC1)c1ccc(F)c(F)c1Nc1ccc(I)cc1Cl [PD184352] | enhanced apoptosis | inhibit the in vivo growth of colon tumor cells in mice | – | – | – | – |
| CN[C@@H]1C[C@H]2O[C@@](C)([C@@H]1OC)n1c3ccccc3c3c4c(c5c6ccccc6n2c5c31)C(=O)N[C@H]4O [UCN-01, 7-hydroxystaurosporine] | – | – | 68 ± 2 | 82 ± 4 | 44 ± 3 | 69 ± 6 |
